From a melting point compilation (Tetko et al.; mined from patent text by program, amines drawn as free bases though some values may be those of a salt)

`CCOC(=O)C1=C(C)Nc2nc(N)nc(N)c2C1c1cc(OC)c(OC)c(OC)c1` (configuration not stated) showed a melting point of 126 °C. Molecule `CCCCC(CC)COc1ccc(-c2nc(-c3ccc(OCC(CC)CCCC)cc3O)nc(-c3cccn3Cc3ccccc3)n2)c(O)c1` (configuration not stated) has a melting point of 66 to 68 °C. Molecule `COc1ccc(OCC(N)=O)c([N+](=O)[O-])c1` has a melting point of 190 to 191 °C. Work on `Cc1cc(=O)[nH]c2ccc(OCCCN3CCC(NC(=O)c4ccccc4)CC3)cc12` yielded a melting point of 243 to 245 °C. `COc1ccc(CNC(=O)n2cc(F)c(=O)[nH]c2=O)c(OC)c1` showed a melting point of 154 °C. `CC(=O)N1CCCN(CC2=Nc3cccc4c(=O)[nH]nc(c34)N2)CC1` showed a melting point of 191 to 193 °C. `Clc1ccccc1NC(c1ccccc1)c1ccccc1` showed a melting point of 98 °C. `CC(=O)OC1CCCN(C(=O)c2ccc(NC(=O)c3ccccc3C)cc2)c2ccccc21` (configuration not stated) showed a melting point of 193 to 194 °C. Molecule `CC(C)(C)c1ccc(C(=O)Nc2cn3c(CO)cccc3n2)cc1` has a melting point of 229 to 230 °C. With `CC(=O)OC1CSC(Oc2cccc(C#N)c2)C(OC(C)=O)C1OC(C)=O` (configuration not stated) the melting point was 148 to 151 °C. For `CN(C)C(=O)c1cc(C(=O)O)c2cc(Cc3ccc(F)cc3)cnc2c1O`, the melting point was 214 to 216 °C. For `Cn1c(=O)[nH]c(=O)n(-c2cc([N+](=O)[O-])c(F)cc2Cl)c1=O`, the melting point was 135 to 139 °C. `Cc1noc(-c2c(C)nc(C#Cc3ccccc3)n2C)n1` gave a melting point of 95 °C. `N#Cc1cnc(-c2c(Cl)cc(C(F)(F)F)cc2Cl)[nH]1` gave a melting point of 210 to 212 °C. With `COC(=O)c1cc(Cl)cc2c1OC(C)C(=O)N2` (configuration not stated) the melting point was 186 to 189 °C. For `CCc1cc(C)cc(CC)c1C1C(=O)CC2(CCOCC2)CC1=O`, the melting point was 139 to 141 °C. For `CC(=O)c1c(NC(=O)C(C)(C)C)cccc1C(F)(F)F`, the melting point was 142 °C. For `CC(Oc1ccccc1[N+](=O)[O-])c1nnc(N)s1` (configuration not stated), the melting point was 137 to 142 °C. `CC(C#N)(c1ccc(Cl)c(C(F)(F)F)c1)c1ccc([N+](=O)[O-])cc1Cl` (configuration not stated) gave a melting point of 162 °C. In the case of `CN(C)C(=O)Nc1c(C(=O)c2cccc(Cl)c2)[nH]c2cc(Cl)ccc12`, the melting point is reported as 214 to 221 °C. Work on `O=C(O)c1cn(-c2ccc(F)cc2)c2cc(N3CCC(N=Cc4ccc([N+](=O)[O-])cc4)C3)c(F)cc2c1=O` (configuration not stated) yielded a melting point of 247 to 248 °C. For `OC(Cc1ccc(F)cc1)c1ccc(F)cc1` (configuration not stated), the melting point was 48 to 50 °C. `CCN(CC)CCC1CCc2cc(O)ccc2C1` (single isomer, unassigned; (+)) showed a melting point of 102 to 104 °C. In the case of `CNC(Cc1cc(Br)ccc1N)c1ccsc1C` (configuration not stated), the melting point is reported as 72.5 to 74 °C. `O=C1[C@H]2CCC[C@H]2N(C(=O)CCCCBr)c2ccccc2N1Cc1ccccc1` (relative stereo) gave a melting point of 134 to 135 °C. `O=C(c1cccnc1)N1CCC(c2ccccc2)=N1` showed a melting point of 87 to 89 °C. In the case of `C=CC(=O)OCC=C(C)CCC=C(C)CCC=C(C)CCC=C(C)CCC=C(C)CCC=C(C)CCC=C(C)CCC=C(C)CCC=C(C)CCC=C(C)C`, the melting point is reported as 32 to 32.8 °C. Molecule `CCn1nc(-c2ccccc2)c(C(C)=O)c(Nc2cccc3cn[nH]c23)c1=O` has a melting point of 263 to 264 °C. `CN(C(=O)c1ccc2nonc2c1)C1CCN(C=O)CC1` showed a melting point of 163 to 165 °C. For `CCOCCOCCn1c(C=O)cc2c1CC(c1ccccc1Cl)C1C(=O)NC(=O)C21` (configuration not stated), the melting point was 190 to 193 °C. In the case of `CNC1CCN(c2ncc(C(F)(F)F)s2)C1=O` (configuration not stated), the melting point is reported as 108 to 109 °C. In the case of `COc1ccc(-c2cc(-c3nccs3)c(=O)n(C)c2-c2ccc(C)o2)cc1`, the melting point is reported as 205 to 206 °C. In the case of `CC=CCn1c(C)c(C)c2cnnc(OCc3ccc(OC(F)F)cc3)c21`, the melting point is reported as 109 to 110 °C. For `CS(=O)c1cc(C(=O)O)c(Cl)cc1Cl` (configuration not stated), the melting point was 200 to 201 °C. In the case of `C#CCN(Cc1ccccc1)S(=O)(=O)c1ccc([N+](=O)[O-])cc1[N+](=O)[O-]`, the melting point is reported as 91 to 92 °C. Work on `COc1ccc2ccnc(N)c2c1` yielded a melting point of 128 to 130 °C. `Cc1ccc(NC(=O)NCc2cccc3c2C(=O)N(C2CCC(=O)NC2=O)C3=O)cc1Cl` (configuration not stated) gave a melting point of 238 to 240 °C. `Cc1ccc(-n2nc(C(N)=O)nc2-c2ccccc2)cc1C` showed a melting point of 169 to 170 °C. For `OCc1cc2ccsc2s1`, the melting point was 85 to 87 °C. In the case of `Cc1nc2ccc(S(=O)(=O)n3c(CCCC(=O)O)cc4nc(Cl)ccc43)cc2s1`, the melting point is reported as 184 °C. For `Cc1ccc(C)n1CCNC(=O)COc1ccc(Cl)cc1`, the melting point was 75 to 77 °C. For `C[C@@H](S[C@H]1CO[C@H](/C=C/C=C/c2ccc(OCC(F)(F)C(F)F)cc2)OC1)[C@](O)(Cn1cncn1)c1ccc(F)cc1F`, the melting point was 75 to 85 °C. `CNc1c(C2=CC(C)(C)Oc3ccc(C#N)cc32)c(=O)c1=O` showed a melting point of 193 to 194 °C. With `CC(c1ccccc1)C(CS)C(=O)NC(Cc1ccc(O)cc1)C(=O)O` (configuration not stated) the melting point was 80 °C. Work on `COc1cc2c(CSCCN3CC=C(c4ccccc4)CC3)c[nH]c2cc1C(=O)O` yielded a melting point of 168 to 171 °C. With `CN1C(=O)N(c2ccc(C(=O)O)cc2)S(=O)(=O)c2ccc(OCC3CCCCC3)cc21` the melting point was 240 to 241 °C. In the case of `CCNC(=O)c1c([Si](C)(C)C)ccc(I)c1Cl`, the melting point is reported as 128 to 130 °C. With `COC(=O)c1cc2c3ccccc3n(Cc3ccccc3)c2s1` the melting point was 158 to 159 °C. For `CCOc1nc2c(cnn2CC)nc1C(=O)NN1CCCCC1`, the melting point was 114 to 115 °C. Work on `CCCCN1C(=O)CN(c2ccccc2)C1=O` yielded a melting point of 74 °C. Molecule `COc1ccc(N2CCN(c3c(C)c(C)c4c(c3C)C(c3ccc(Cl)cc3)C(C)(C)O4)CC2)cc1` (configuration not stated) has a melting point of 181 to 183 °C. `Cc1cc(OCC(F)(F)F)c(NC(=O)CN2CCN(CCO)CC2)c(OCC(F)(F)F)n1` gave a melting point of 117 to 118 °C. In the case of `O=c1cc[nH]c2c([N+](=O)[O-])cc(C(F)(F)F)cc12`, the melting point is reported as 153 to 156 °C. `CN(C)C=Nc1sc(C=Nc2ccccc2)c(Cl)c1C#N` gave a melting point of 174 °C. In the case of `CCCc1nc2c(N)nc3cc(-c4cccc(S(C)(=O)=O)c4)ccc3c2s1`, the melting point is reported as 242 to 245 °C. In the case of `COC(=O)c1nc(OC)sc1-c1ccccc1`, the melting point is reported as 86 to 88 °C. Molecule `CC[C@H](C)[C@H](OCc1ccccc1)[C@@H]1[C@H]([N+](=O)[O-])[C@H](c2ccccc2)N[C@]1(C)C(=O)NCC(=O)O` has a melting point of 89 to 90 °C. `Nc1c(F)c(F)cc(F)c1[N+](=O)[O-]` gave a melting point of 66 °C. With `Nc1c(-c2ccc(NS(=O)(=O)c3ccccc3Cl)cc2F)cnc2c(CO)cnn12` the melting point was 204 to 208 °C. Work on `O=C(COc1ccc(CN2CCCC2)cc1)Nc1ccc(Br)cc1` yielded a melting point of 143 to 145 °C. Work on `CC1=CC(=O)C(C(=O)Cc2ccccc2)C(=O)O1` (configuration not stated) yielded a melting point of 150 to 151 °C. With `CSc1nccc(Oc2ccc(NC(=O)c3cccc(OC(C)(C)C)c3)c3ccccc23)n1` the melting point was 135 to 136 °C. `CC(C)(C)[Si](C)(C)OCCn1cc([N+](=O)[O-])cn1` gave a melting point of 63 to 64 °C. Molecule `Cn1cc(NC(=O)c2cc(NC(=O)c3cc([N+](=O)[O-])cn3C)cn2C)cc1C(=O)NCCN1CCOCC1` has a melting point greater than 230 °C. Work on `COCCOc1ccc(/C=C/C(=O)O)c(Oc2ccc(C(F)(F)F)cc2Cl)c1` yielded a melting point of 166 °C. `CC(C)Oc1ccccc1C1(N)C(=O)Nc2ccc(Cl)cc21` (configuration not stated) gave a melting point of 193 °C. In the case of `CCSc1sc(C(=O)N2CCCC2)c2c1-c1oncc1C(C)(C)C2`, the melting point is reported as 91 to 93 °C. `COC(=O)c1cc(C(=O)O)c2c(Cl)cc(Cl)cc2n1` showed a melting point of 260 to 262 °C. `Cn1nc(-c2ccc(F)cc2F)cc1C(F)(F)F` showed a melting point of 51 °C. Molecule `CC(=O)Oc1ccc(-c2c(C)c3ccc(F)cc3oc2=O)c(OC(C)=O)c1` has a melting point of 148 to 149 °C. In the case of `CCOC(=O)C(N=C(c1cc(Cl)ccc1N)c1ccccc1F)C(=O)OCC`, the melting point is reported as 119 °C. `CC(=O)OCCn1c(=O)oc(=O)c2ccccc21` showed a melting point of 128 to 131 °C. With `COc1cc(C#Cc2cc(OC)c(OC(C)C)cc2OC(=O)CI)ccc1OC(C)C` the melting point was 127 to 128 °C. For `Cn1nc(C=NO)nc1NCCCOc1cccc(CN2CCCCC2)c1`, the melting point was 173 to 174 °C. `CC(OC1CCCN(Cc2n[nH]c(=O)[nH]2)C1c1ccccc1)c1cc(C(F)(F)F)cc(C(F)(F)F)c1` (configuration not stated) gave a melting point of 214 to 215 °C. In the case of `CCOC(=O)Cn1c(=S)c2ccccc2n(Cc2ccc(Cl)c(Cl)c2)c1=O`, the melting point is reported as 128 to 129 °C. Molecule `NC(Cc1ccc(O)c(O)c1)P(O)O` (configuration not stated) has a melting point of 237 to 238 °C. Molecule `CCOC(=O)c1c(-c2ccc(OC)c(OC)c2)c2cc(C)ccc2[nH]c1=O` has a melting point of 220 to 221 °C. `O=C(O)COc1ccc2cc(-c3cnc(Cc4ccc5ccccc5c4)o3)ccc2c1` gave a melting point of 258 to 260 °C. In the case of `CS(=O)c1nc2ccc(C(F)(F)F)cc2[nH]1` (configuration not stated), the melting point is reported as 135 °C. `Cn1ncnc1COc1nn2c(-c3cnccn3)nncc2c1-c1ccccc1F` gave a melting point of 179 to 180 °C. `CC(C)C[C@H](NC(=O)c1ccccc1Cl)C(=O)N[C@@H](C(C)C)[C@@H](O)c1c(-c2ccccc2)c1=O` showed a melting point of 99 to 104 °C. Molecule `Cc1[nH]c(-c2ccccc2)nc1-c1ccc(Cl)cc1Cl` has a melting point of 222 to 224 °C. Molecule `SCC1=NC2CCCCC2N1` (configuration not stated) has a melting point of 125 to 129 °C. Work on `COc1cc(CN2C(=O)C3(COc4cc5c(cc43)OCCO5)c3ccccc32)ccc1F` (configuration not stated) yielded a melting point of 161 to 163 °C. Work on `COCCN(CCOC)c1ccc(NC(=O)c2ccc(C)c(Nc3nccc(-c4cccnc4)n3)c2)cc1C(F)(F)F` yielded a melting point of 156 to 157 °C. In the case of `Cn1cc(C(=O)NCc2ccc(Br)cc2)c(=O)c2cc(CN3CCOCC3)sc21`, the melting point is reported as 245 to 246 °C. With `O=C1CCCc2nc3ccccc3c(NCc3ccc(C(F)(F)F)cc3)c21` the melting point was 174 to 176 °C. Molecule `CC(C)NCC(O)COc1ccc(CCSCC2CCC2)cc1` (configuration not stated) has a melting point of 52 °C. Molecule `O=C(O)CCc1cn(Cc2ccc(OCc3noc(-c4ccccc4)n3)cc2)nc1-c1ccccc1` has a melting point of 166 to 167 °C. Work on `CCOC(=O)ONC(=N)c1cc(C(C)(C)C)c(OCOCCOC)c(C(C)(C)C)c1` yielded a melting point of 115 to 117 °C. `Cn1c(C(F)(F)F)nn(-c2cc(F)c(C#N)cc2F)c1=O` showed a melting point of 74 °C. For `CCC(=O)c1ccc(C#C[Si](C)(C)C)cc1`, the melting point was 36 to 37 °C. In the case of `CCn1c(C)nc2c(C3=NC(C)(C(C)C)C(=O)N3)c(C(=O)OC)ccc21` (configuration not stated), the melting point is reported as 189 to 191 °C. `COc1ccc(Cn2nnnc2C(=O)Nc2cc(OCCCOc3ccc(C(C)=O)c(O)c3CCC(F)(F)F)c(Br)cc2C)cc1` gave a melting point of 140 to 142 °C. `C=CCOc1cc2c(c(Cl)c1Cl)C(=O)C(C)(c1ccccc1)C2` (configuration not stated) showed a melting point of 105 °C. For `OC(COc1ccccc1)c1ccccc1` (configuration not stated), the melting point was 61 to 62 °C.
